Measurements published in ChEMBL document CHEMBL1671764, “In vitro and in vivo activities of LCB01-0371, a new oxazolidinone” (2010).
Converted amounts (≈) assume the structure as drawn.

Assays:
Format in all cases: functional
[1] = system: Haemophilus influenzae; experiment: Antibacterial activity against 7.5 x 10^8 CFU Haemophilus influenzae hd2 infected in ICR mouse systemic infection model assessed as mouse protection administered orally twice after 1 and 4 hrs post infection measured after 48 hrs
[2] = system: Enterococcus; experiment: Antibacterial activity against 10^4 to 10^5 CFU vancomycin-resistant Enterococcus after 18 hrs by CLSI 2-fold agar dilution method
[3] = system: Staphylococcus; experiment: Antibacterial activity against 10^4 to 10^5 CFU methicillin-susceptible coagulase-negative Staphylococcus after 18 hrs by CLSI 2-fold agar dilution method
[4] = system: Enterococcus faecium; experiment: Antibacterial activity against 10^4 to 10^5 CFU Enterococcus faecium after 18 hrs by CLSI 2-fold agar dilution method
[5] = system: Staphylococcus; experiment: Antibacterial activity against 10^4 to 10^5 CFU methicillin-resistant coagulase-negative Staphylococcus after 18 hrs by CLSI 2-fold agar dilution method
[6] = system: Streptococcus pneumoniae; experiment: Antibacterial activity against 10^4 to 10^5 CFU Streptococcus pneumoniae after 18 hrs by CLSI 2-fold agar dilution method
[7] = system: Moraxella catarrhalis; experiment: Antibacterial activity against 10^4 to 10^5 CFU Moraxella catarrhalis after 18 hrs by CLSI 2-fold agar dilution method
[8] = system: Staphylococcus aureus; experiment: Antibacterial activity against 10^4 to 10^5 CFU methicillin-resistant Staphylococcus aureus after 18 hrs by CLSI 2-fold agar dilution method
[9] = system: Staphylococcus aureus; experiment: Antibacterial activity against 10^4 to 10^5 CFU methicillin-susceptible Staphylococcus aureus after 18 hrs by CLSI 2-fold agar dilution method
[10] = system: Streptococcus pyogenes; experiment: Antibacterial activity against 10^4 to 10^5 CFU Streptococcus pyogenes after 18 hrs by CLSI 2-fold agar dilution method
[11] = system: Enterococcus faecalis; experiment: Antibacterial activity against 10^4 to 10^5 CFU Enterococcus faecalis after 18 hrs by CLSI 2-fold agar dilution method
[12] = system: Haemophilus influenzae; experiment: Antibacterial activity against 10^4 to 10^5 CFU Haemophilus influenzae after 18 hrs by CLSI 2-fold agar dilution method

Structure (SMILES)	MIC50 [2] [µg/mL]	MIC90 [2] [µg/mL]	MIC50 [3] [µg/mL]	MIC90 [3] [µg/mL]	MIC50 [4] [µg/mL]	MIC90 [4] [µg/mL]	MIC50 [5] [µg/mL]	MIC90 [5] [µg/mL]	MIC50 [6] [µg/mL]	MIC90 [6] [µg/mL]	MIC50 [7] [µg/mL]	MIC90 [7] [µg/mL]	MIC50 [8] [µg/mL]	MIC90 [8] [µg/mL]	MIC50 [9] [µg/mL]	MIC90 [9] [µg/mL]	MIC50 [10] [µg/mL]	MIC90 [10] [µg/mL]	MIC50 [11] [µg/mL]	MIC90 [11] [µg/mL]	further results
CC(=O)NC[C@H]1CN(c2ccc(N3CCOCC3)c(F)c2)C(=O)O1 [LINEZOLID]	2 (≈ 5.93 µM)	2 (≈ 5.93 µM)	1 (≈ 2.96 µM)	2 (≈ 5.93 µM)	2 (≈ 5.93 µM)	2 (≈ 5.93 µM)	1 (≈ 2.96 µM)	1 (≈ 2.96 µM)	1 (≈ 2.96 µM)	1 (≈ 2.96 µM)	8 (≈ 23.7 µM)	16 (≈ 47.4 µM)	2 (≈ 5.93 µM)	2 (≈ 5.93 µM)	2 (≈ 5.93 µM)	2 (≈ 5.93 µM)	2 (≈ 5.93 µM)	2 (≈ 5.93 µM)	2 (≈ 5.93 µM)	2 (≈ 5.93 µM)	MIC [1]: 16 µg/mL (≈ 47.4 µM); MIC [2]: 2 µg/mL (≈ 5.93 µM); MIC [3]: 1 µg/mL (≈ 2.96 µM); MIC [5]: 1 µg/mL (≈ 2.96 µM)
Cc1onc(-c2ccccc2)c1C(=O)N[C@@H]1C(=O)N2[C@@H]1SC(C)(C)[C@@H]2C(=O)O [OXACILLIN]	> 64	> 64	0.125 (≈ 0.311 µM)	1 (≈ 2.49 µM)	> 64	> 64	> 64	> 64	8 (≈ 19.9 µM)	16 (≈ 39.9 µM)	0.06 (≈ 0.149 µM)	0.06 (≈ 0.149 µM)	> 64	> 64	0.25 (≈ 0.623 µM)	0.5 (≈ 1.25 µM)	0.5 (≈ 1.25 µM)	8 (≈ 19.9 µM)	16 (≈ 39.9 µM)	> 64	MIC50 [12]: < 0.008 µg/mL; MIC90 [12]: 0.015 µg/mL (≈ 0.0374 µM)
CN[C@H](CC(C)C)C(=O)N[C@H]1C(=O)N[C@@H](CC(N)=O)C(=O)N[C@H]2C(=O)N[C@H]3C(=O)N[C@H](C(=O)N[C@H](C(=O)O)c4cc(O)cc(O)c4-c4cc3ccc4O)[C@H](O)c3ccc(c(Cl)c3)Oc3cc2cc(c3O[C@@H]2O[C@H](CO)[C@@H](O)[C@H](O)[C@H]2O[C@H]2C[C@](C)(N)[C@H](O)[C@H](C)O2)Oc2ccc(cc2Cl)[C@H]1O [VANCOMYCIN]	> 64	> 64	2 (≈ 1.38 µM)	4 (≈ 2.76 µM)	1 (≈ 0.69 µM)	2 (≈ 1.38 µM)	2 (≈ 1.38 µM)	2 (≈ 1.38 µM)	0.5 (≈ 0.345 µM)	1 (≈ 0.69 µM)			1 (≈ 0.69 µM)	2 (≈ 1.38 µM)	1 (≈ 0.69 µM)	1 (≈ 0.69 µM)	1 (≈ 0.69 µM)	1 (≈ 0.69 µM)	2 (≈ 1.38 µM)	4 (≈ 2.76 µM)	MIC50 [12]: > 64 µg/mL; MIC90 [12]: > 64 µg/mL
